In US8551721B2, “Bioluminescent detection of cyanohydroxy benzothiazole compounds” (Promega Corporation, priority 2008, dated 2013):

Columns and labels:
Assay type in all cases: biochemical
UGT 2B7 = biological target: T1, UGT 2B7 (Homo sapiens, UniProt P16662); assay: UGT activity: utilization of substrate by recombinant UGT 2B7 Supersomes; conditions: 2 hour incubation at 37° C., plus vs minus UDPGA, background corrected
T1 construct: purchased BD Gentest; host or cells: insect cells (microsomes)
T1 sequence (P16662 24-529): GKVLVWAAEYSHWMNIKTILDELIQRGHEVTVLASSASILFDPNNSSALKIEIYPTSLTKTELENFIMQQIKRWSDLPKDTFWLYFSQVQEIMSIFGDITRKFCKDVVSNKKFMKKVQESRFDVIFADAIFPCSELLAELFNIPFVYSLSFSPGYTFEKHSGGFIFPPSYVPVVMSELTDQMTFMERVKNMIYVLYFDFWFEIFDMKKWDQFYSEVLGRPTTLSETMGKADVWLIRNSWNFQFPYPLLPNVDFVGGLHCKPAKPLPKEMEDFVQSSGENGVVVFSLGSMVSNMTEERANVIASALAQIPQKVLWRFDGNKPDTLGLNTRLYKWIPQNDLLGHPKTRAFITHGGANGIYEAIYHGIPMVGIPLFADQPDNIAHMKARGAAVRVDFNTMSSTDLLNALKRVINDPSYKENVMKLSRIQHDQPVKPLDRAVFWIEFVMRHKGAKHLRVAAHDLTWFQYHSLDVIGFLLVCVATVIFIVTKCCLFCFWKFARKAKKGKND
Protocol: (§1) The invention includes a method of determining activity of the uridine 5′-diphospho-glucuronosyltransferase (UDP-glucuronosyltransferase, or UGT) family enzymes in vitro. Briefly, UGT enzymes from overexpressed insect microsomes (Supersomes™, BD Gentest™) or animal tissue microsomes (Xenotech, BD Gentest™) were incubated with a cyanobenzothiazole substrate of the invention and the cofactor UDP-glucuronic acid (UDPGA) at 37° C. in buffer at physiological pH containing MgCl2 and alamethicin (typically, 50 mM TES, pH 7.5, 8 mM MgCl2, 4 mM UDPGA (Sigma) and 25 μg/mL alamethicin (Sigma)). Following the UGT enzyme reaction, an equal volume of P450-Glo Luciferin Detection Reagent (Promega) containing 15-30 mM D-cysteine-HCl.H2O (Sigma) was added and the plate was mixed and incubated at room temperature, typically for 20-30 minutes. […]
(§2) During this incubation, the cysteine reacts with the cyanobenzathiozole substrate to yield a D-luciferin derivative. […] Therefore, activity of the UGT enzyme can be measured by analyzing the difference (lower or no output) in relative light units (RLU) of a sample in which glucuronidation occurs compared to a sample that was run under the same conditions with no added UDPGA cofactor. […]
(§3) Reactions were assembled in a white 96-well plate. […] After the incubation was completed, the plate was read on a Veritas™ luminometer (Turner BioSystems, Inc.; Sunnyvale, Calif.). […]

UGT 1A7 = biological target: T2, UGT 1A7 (Homo sapiens, UniProt Q9HAW7); assay: UGT activity: utilization of substrate by recombinant UGT 1A7 Supersomes; conditions: 2 hour incubation at 37° C., plus vs minus UDPGA
T2 construct: purchased BD Gentest; host or cells: insect cells (microsomes)
T2 sequence (Q9HAW7 26-530): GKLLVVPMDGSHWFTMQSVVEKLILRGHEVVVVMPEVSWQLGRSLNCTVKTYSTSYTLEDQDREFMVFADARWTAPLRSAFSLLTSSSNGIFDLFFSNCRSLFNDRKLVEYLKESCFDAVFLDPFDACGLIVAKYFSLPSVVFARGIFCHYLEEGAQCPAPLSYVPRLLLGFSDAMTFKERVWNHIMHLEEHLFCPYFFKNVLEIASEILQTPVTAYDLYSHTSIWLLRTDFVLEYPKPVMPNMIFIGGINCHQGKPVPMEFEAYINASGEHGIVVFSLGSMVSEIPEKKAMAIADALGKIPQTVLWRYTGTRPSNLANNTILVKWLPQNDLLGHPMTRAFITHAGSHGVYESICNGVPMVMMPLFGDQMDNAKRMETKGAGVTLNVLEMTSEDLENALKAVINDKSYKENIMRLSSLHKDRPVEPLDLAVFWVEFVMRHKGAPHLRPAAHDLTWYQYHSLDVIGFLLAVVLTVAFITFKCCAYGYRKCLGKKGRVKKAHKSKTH
Protocol: as §1, §2, §3

UGT 2B15 = biological target: T3, UGT 2B15 (Homo sapiens, UniProt P54855); assay: UGT activity: utilization of substrate by recombinant UGT 2B15 Supersomes; conditions: 2 hour incubation at 37° C., plus vs minus UDPGA
T3 construct: purchased BD Gentest; host or cells: insect cells (microsomes)
T3 sequence (P54855 24-530): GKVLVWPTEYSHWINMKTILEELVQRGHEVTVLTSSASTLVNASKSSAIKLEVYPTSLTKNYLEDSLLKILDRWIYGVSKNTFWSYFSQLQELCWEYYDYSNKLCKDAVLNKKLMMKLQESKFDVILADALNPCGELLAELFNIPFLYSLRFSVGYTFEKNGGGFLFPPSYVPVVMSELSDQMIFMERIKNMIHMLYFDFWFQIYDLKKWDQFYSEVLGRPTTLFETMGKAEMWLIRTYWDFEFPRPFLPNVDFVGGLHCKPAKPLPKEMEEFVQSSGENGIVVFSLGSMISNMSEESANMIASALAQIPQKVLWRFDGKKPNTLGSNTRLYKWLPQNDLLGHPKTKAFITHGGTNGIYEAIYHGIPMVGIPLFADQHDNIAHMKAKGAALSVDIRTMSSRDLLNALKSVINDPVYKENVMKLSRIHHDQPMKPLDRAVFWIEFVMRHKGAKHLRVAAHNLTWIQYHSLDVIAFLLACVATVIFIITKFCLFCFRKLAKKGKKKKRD
Protocol: as §1, §2, §3

Compound: Cc1cc(O)cc2sc(C3=NC(C(=O)O)CS3)nc12 (stereo not drawn) [compound 3478]
- % utilization by UGT 2B7 (UGT 2B7): ≤ 15%
- utilization by UGT 1A7 (in words) (UGT 1A7): only UGT 1A6 was able to utilize compound 3478 to any appreciable extent
- utilization by UGT 2B15 (in words) (UGT 2B15): only UGT 1A6 was able to utilize compound 3478 to any appreciable extent

Compound: Cc1cc(O)cc2sc(C#N)nc12 [compound 3138]
- % utilization by UGT 2B7 (UGT 2B7): over 50%
- utilization by UGT 1A7 (in words) (UGT 1A7): detectable levels of utilization above background
- utilization by UGT 2B15 (in words) (UGT 2B15): detectable levels of utilization above background
